Laboratory results published in patent US20220378923A1, “BET DEGRADER” (KYOWA KIRIN CO., LTD., priority 2019, published 2022).
Like-named read-outs stand apart in the source and are kept apart here.

Assays:
[1] = test system: SU-DHL-4 cells; experiment: Inhibitory effect on cell viability in SU-DHL-4 cell line (Test Example 1); assay type: cell-based, human; details: 72 hours; for IC50: SU-DHL-4 (wild type) cells, calculated using the measurement results of test example 1, read-out: SU-DHL-4 WT IC50; for IC90: SU-DHL-4 cells, Cell Counting Kit-8, concentration showing 90% inhibition of cell viability, read-out: SU-DHL-4 Cell Viability Inhibition Rate IC90
Summary of the method: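 SU-DHL-4 cells were grown at 37° C. under 5% CO2 in RPMI1640 with 10 vol % heat-inactivated FBS plus penicillin/streptomycin, seeded and precultured for 18 to 25 hours, then exposed to test compound at 0.1 vol % DMSO for 72 hours. Viability was read with Cell Counting Kit-8 by absorbance at 450 nm.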

[2] = test system: MYC mRNA expression in SU-DHL-4 cells; experiment: Suppressive effect on MYC mRNA expression (Test Example 2); assay type: cell-based, human; details: test compound 100 nmol/L, 6 hours, qRT-PCR corrected by ACTB, GAPDH; for inhibition at 0.1 µM: Homo sapiens, HPRT1, read-out: Suppression Rate of MYC mRNA Expression (%); for Suppression Rate of MYC mRNA Expression (%): HPRT1
Summary of the method: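 SU-DHL-4 cells were treated for 6 h at 37 °C with compound (0.1% DMSO final). MYC mRNA was measured by TaqMan qRT-PCR and normalised to the geometric mean of ACTB, GAPDH and HPRT1. Suppression was calculated relative to untreated wells.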

Structure (SMILES)	IC50 ([1]; Homo sapiens)	inhibition at 0.1 µM [2]	IC50 [1]	IC90 [1]	Suppression Rate of MYC mRNA Expression (%) [2]
CCC(=O)N1c2ccccc2[C@H](Nc2ccc(NC(=O)CCSc3ccc(N[C@@H]4C[C@H](C)N(C(=O)CC)c5ccccc54)cc3)cc2)C[C@@H]1C (relative stereo) [Compound 4e, N-(4-{[(2S*,4R*)-2-Methyl-1-propionyl-1,2,3,4-tetrahydroquinolin-4-yl]amino}phenyl)-3-[(4-{[(2S,4R)-2-methyl-1-propionyl-1,2,3,4-tetrahydroquinolin-4-yl]amino}phenyl)thio]propanamide]	0.3 nM	98.4%			
CCC(=O)N1c2ccccc2[C@H](Nc2ccc(C(=O)NCCNS(=O)(=O)c3ccc(N[C@@H]4C[C@H](C)N(C(=O)CC)c5ccccc54)cc3)cc2)C[C@@H]1C [Compound 4d, 4-{[(2S,4R)-2-Methyl-1-propionyl-1,2,3,4-tetrahydroquinolin-4-yl]amino}-N-{2-[(4-{[(2S,4R)-2-methyl-1-propionyl-1,2,3,4-tetrahydroquinolin-4-yl]amino}phenyl)sulfonamide]ethyl}benzamide]			4.18 nM	13 nM	98.3%
Cc1sc2c(c1C)C(c1ccc(C(=O)NCCCNC(=O)c3ccc(C4=N[C@@H](CC(=O)OC(C)(C)C)c5nnc(C)n5-c5sc(C)c(C)c54)cc3)cc1)=N[C@@H](CC(=O)OC(C)(C)C)c1nnc(C)n1-2 [Compound 1b, Di-tert-butyl 2,2′-[(6S,6′S)-({[propane-1,3-diylbis(azanediyl)]bis(carbonyl)}bis(4,1-phenylene))bis(2,3,9-trimethyl-6H-thieno[3,2-f][1,2,4]triazolo[4,3-a][1,4]diazepine-4,6-diyl)]diacetate]	0.65 nM	98.4%			
CCC(=O)N1c2ccccc2[C@H](Nc2ccc(NC(=O)CCCC(=O)Nc3ccc(Cn4c(C(=O)OCCN(C)C)cc5c4CCCC5=O)cc3)cc2)C[C@@H]1C [Compound 15a, 2-(Dimethylamino)ethyl 1-(4-(5-((4-(((2S,4R)-2-methyl-1-propionyl-1,2,3,4-tetrahydroquinolin-4-yl)amino)phenyl)amino)-5-oxopentanamide)benzyl)-4-oxo-4,5,6,7-tetrahydro-1H-indole-2-carboxylate]			0.28 nM	0.34 nM	97.6%
CCC(=O)N1c2ccccc2[C@H](Nc2ccc(NC(=O)CCNC(=O)c3ccc(N[C@@H]4C[C@H](C)N(C(=O)CC)c5ccccc54)cc3)cc2)C[C@@H]1C (relative stereo) [Compound 2f, 4-{[(2S,4R)-2-Methyl-1-propionyl-1,2,3,4-tetrahydroquinolin-4-yl]amino}-N-{3-[(4-{[(2S*,4R*)-2-methyl-1-propionyl-1,2,3,4-tetrahydroquinolin-4-yl]amino}phenyl)amino]-3-oxopropyl}benzamide]	0.09 nM	98.6%			
